The target of test [1] is T1, GDP-loaded HIS-KRAS(G12D, aa 1-169) (Homo sapiens, UniProt P01116, G12D).
T1 construct: GDP-loaded HIS-KRAS(G12D, aa 1-169)
As to the kind of experiment: SOS1 catalyzed nucleotide exchange assay (TR-FRET). The format is biochemical. The conditions noted are these: 4 hours at 25° C. On the procedure: GDP-loaded HIS-KRAS(G12D, aa 1-169) was pre-incubated with a compound in the presence of 10 nM GDPin a 384-well plate (Greiner) for 15 min, then purified SOS1 ExD(Flag tag, aa 564-1049), BODIPY™ FL GTP (Invitrogen) and MAb (monoclonal antibody) Anti 6HIS-Tb cryptate Gold (Cisbio) were added to the assay wells (Final concentration: 1.5 nM GDP-loaded HIS-KRAS(G12D), 5 nM GDP, 0.5 μM SOS1 ExD, 80 nM BODIPY™ FL GTP, 52.5 ng/mL MAb Anti 6HIS-Tb cryptate Gold) and incubated for 4 hours at 25° C. Wells containing same percent of DMSO served as vehicle control, and wells without KRAS served as low control. TR-FRET signals were read on Tecan Spark multimode microplate reader. The parameters were F486: Excitation 340 nm, Emission 486 nm, Lag time 100 μs, Integration time 200 μs; F515: Excitation 340 nm, Emission 515 nm, Lag time 100 μs, Integration time 200 μs. TR-FRET ratios for each individual wells were calculated by equation: TR-FRET ratio=(Signal F515/Signal F486)*10000. The percent of activation of compounds treated wells were normalized between vehicle control and low control (% Activation=(TR-FRET ratioCompound treated−TR-FRET ratioLow control)/(TR-FRET ratioVehicle control−TR-FRET ratioLow control)*100%). Then the data were analyzed by fitting a 4-parameter logistic model or calculating in Excel to calculate IC50 values.
Background: TR-FRET usually uses a lanthanide donor and a delayed reading to cut background.

Test [2] concerns the target T2, GppNp-loaded HIS-KRAS(G12D, aa 1-169) and cRAF RBD (Homo sapiens, UniProt P01116, G12D).
T2 construct: GppNp-loaded HIS-KRAS(G12D, aa 1-169)
As to the kind of experiment: GTP-KRAS and cRAF interaction assay (HTRF). The test is classed as biochemical. The conditions noted are these: 2 hours at 25° C. The procedure:
GppNp-loaded HIS-KRAS(G12D, aa 1-169) was pre-incubated with a compound in the presence of 200 μM GTP in a 384-well plate (Greiner) for 15 min, then cRAF RBD(GST tag, aa 50-132, CreativeBioMart), MAb Anti GST-d2 (Cisbio) and MAb Anti 6HIS-Tb cryptate Gold (Cisbio) were added to the assay wells (Final concentration: 2.0 nM GppNp-loaded HIS-KRAS(G12D), 100 μM GTP, 35 nM cRAF RBD, 1 μg/mL MAb Anti GST-d2, 52.5 ng/mL MAb Anti 6HIS-Tb cryptate Gold) and incubated for 2 hours at 25° C. Wells containing same percent of DMSO served as vehicle control, and wells without KRAS served as low control. HTRF signals were read on Tecan Spark multimode microplate reader and HTRF ratios were calculated under manufacturer's instructions. The percent of activation of compounds treated wells were normalized between vehicle control and low control (% Activation=(HTRF ratioCompound treated−HTRF ratioLow control)/(HTRF ratioVehicle control−HTRF ratioLow control)*100%). Then the data were analyzed by fitting a 4-parameter logistic model or calculating in Excel to calculate IC50 values.

Test [3] relates to AGS. As to the kind of experiment: Cell growth inhibition assay, AGS (CellTiter-Glo). The test is classed as cell-based. Particulars: Homo sapiens, 144 h; AGS cell viability, 6 days incubation. On the procedure:
AGS cultured in F12K medium (Gibco) containing 10% fetal bovine serum (Gibco). Cells in culture medium were plated in 96-well plates at a concentration of 500 cells/well (100 μL/well) and allowed to attach overnight.
(§1) The next day, compounds were diluted in culture medium and added to the plates. After 6 days incubation in a 37° C./5% CO2 cell incubator, the cell viability was detected by CellTiter-Glo® Luminescent Cell Viability Assay kit (Promega). Luminescent signals were read on Tecan Spark multimode microplate reader and analyzed using a 4-parameter logistic model to calculate IC50 values.
Background: ATP-based viability assays read luminescence as a measure of living cells.

Test [4] concerns AsPC-1. As to the kind of experiment: Cell growth inhibition assay, AsPC-1 (CellTiter-Glo). The conditions noted are these: Homo sapiens, ASPC1, 144 h; AsPC-1 cell viability, 6 days incubation. The test is classed as cell-based. The procedure: AsPC-1 cultured in RPMI-1640 medium (Gibco) containing 10% fetal bovine serum (Gibco). Cells in culture medium were plated in 96-well plates at a concentration of 1000 cells/well (100 μL/well) and allowed to attach overnight.
as §1

Test [5] deals with AGS cells expressing KRAS G12D. As to the kind of experiment: Phospho-ERK1/2(THR202/TYR204) HTRF assay. The format is cell-based. The conditions noted are these: Homo sapiens; Phospho-ERK1/2 in AGS cells, 2 hours incubation. On the procedure:
AGS cells expressing KRAS G12D were cultured in F12K medium (Gibco) containing 10% fetal bovine serum (Gibco). The AGS cells in culture medium were seeded in 96-well plates at a concentration of 40,000 cells/well and then put in a 37° C./5% CO2 cell incubator to incubate overnight. The next day, culture medium was removed and the compound diluted in assay medium (F12K, 0.1% FBS) was added in each well. After 2 hours incubation in a 37° C./5% CO2 cell incubator, the assay medium in 96-well plates was removed, then 50 μL of 1× blocking reagent-supplemented lysis buffer (Cisbio) was added and the plates were incubated at 25° C. for 45 min with shaking. 10 μL of cell lysates from the 96-well plates were transferred to a 384-well plate (Greiner) containing 2.5 μL/well HTRF® pre-mixed antibodies (Cisbio 64AERPEH). Incubate 4 hours at 25° C. and then read HTRF signals on Tecan Spark multimode microplate reader. The data were analyzed using a 4-parameter logistic model to calculate IC50 values.

IC50 data for 18 compounds are collected here from patent publication US20240025918A1, “KRAS G12D Inhibitors” (Jacobio Pharmaceuticals Co., Ltd, priority 2020, published 2024).

T1 sequence (P01116 1-169 isoform P01116-2 G12D): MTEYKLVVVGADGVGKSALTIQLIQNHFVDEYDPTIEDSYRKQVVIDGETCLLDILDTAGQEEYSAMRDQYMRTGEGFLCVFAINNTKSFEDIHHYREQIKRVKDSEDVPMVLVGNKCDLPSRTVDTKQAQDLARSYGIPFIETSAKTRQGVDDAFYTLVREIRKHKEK
T2 sequence (P01116 1-169 isoform P01116-2 G12D): as above

On to `C#Cc1cccc2cc(O)cc(-c3c(F)cc4c(N5CC6CCC(C5)N6)nc(OCC5(CN6CC7CCCC7C6)CC5)nc4c3F)c12` (stereo not drawn) [Compound 25], for which the IC50 (commonly the point on the concentration scale where inhibition reaches its midpoint) in test [1] is 1.48 nM; in test [2] it was 51 nM; in test [3] it was 13.2 nM; in test [4] it was 96.6 nM; in test [5] it was 14.7 nM.

Take `C#Cc1c(F)ccc2cc(O)cc(-c3ccc4c(N5CC6CCC(C5)N6)nc(OCC5(CN6C7CCC6COC7)CC5)nc4c3F)c12` [Compound 7]: the IC50 in test [1] came to 6.27 nM; in test [2], 27.2 nM; in test [3], 5.66 nM; in test [4], 72.2 nM; in test [5], 3.53 nM.

Take `C#Cc1cccc2cc(O)cc(-c3ccc4c(N5CC6CCC(C5)N6)nc(OCC5(CN6C7CCC6COC7)CC5)nc4c3F)c12` [Compound 10]: the IC50 in test [1] came to 12.1 nM; in test [2] it was 77.3 nM; in test [3], 11.1 nM; in test [4] it was 57.6 nM; in test [5], 6.18 nM.

Consider `C#Cc1cccc2cc(O)cc(-c3c(F)cc4c(N5CC6CCC(C5)N6)nc(OCC5(CN6CCC7(CC6)CC7(F)F)CC5)nc4c3F)c12` [Compound 3], for which the IC50 in test [1] is 37.1 nM; in test [2] it was 115 nM; in test [3], 6.76 nM; in test [4] it was 22.8 nM; in test [5], 95.5 nM.

Consider `C#Cc1cccc2cc(O)cc(-c3c(F)cc4c(N5CC6CCC(C5)N6)nc(OCC5(CN6CCCOCC6)CC5)nc4c3F)c12` [Compound 37], for which the IC50 in test [1] was 4.36 nM; in test [2], 50.1 nM; in test [3], 6.48 nM; in test [4] it was 89.9 nM; in test [5] it was 10.9 nM.

For `C#Cc1cccc2cc(O)cc(-c3c(F)cc4c(N5CC6CCC(C5)N6)nc(OCC5(CN6CCC7(CCO7)CC6)CC5)nc4c3F)c12` [Compound 11], the IC50 in test [1] was found to be 31.6 nM; in test [2], 86.6 nM; in test [3] it was 15.7 nM; in test [4], 214 nM; in test [5], 9.49 nM.

For the compound `C#Cc1cccc2cc(O)cc(-c3ccc4c(N5CC6CCC(C5)N6)nc(OCC5(CN6CC7CCCC7C6)CC5)nc4c3F)c12` (stereo not drawn) [Compound 32], the IC50 was 35.5 nM in test [1]; 93.1 nM in test [2]; 8.82 nM in test [3]; 67.1 nM in test [4]; 34.8 nM in test [5].

Turning to `C#Cc1cccc2cc(O)cc(-c3c(F)cc4c(N5CC6CCC(C5)N6)nc(OCC5(CN6CC7COCC7C6)CC5)nc4c3F)c12` (stereo not drawn) [Compound 24], the IC50 worked out at 1.26 nM in test [1]; 25.2 nM in test [2]; 3.66 nM in test [3]; 36 nM in test [4]; 2.48 nM in test [5].

Consider `C#Cc1cccc2cc(O)cc(-c3c(F)cc4c(N5CC6CCC(C5)N6)nc(OCC5(CN6C[C@@H]7OCCO[C@@H]7C6)CC5)nc4c3F)c12` [Compound 50], for which the IC50 came to 1.39 nM in test [1]; 42.5 nM in test [2]; 3.49 nM in test [3]; 70 nM in test [4]; 9.39 nM in test [5].

Take `C#Cc1cccc2cc(O)cc(-c3ccc4c(N5CC6CCC(C5)N6)nc(OCC5(CN6CC(OC)C6)CC5)nc4c3F)c12` [Compound 31]: the IC50 is 23.2 nM in test [1]; 108 nM in test [2]; 26.2 nM in test [3]; 215 nM in test [4]; 13.4 nM in test [5].

For the compound `C#Cc1cccc2cc(O)cc(-c3ccc4c(N5CC6CCC(C5)N6)nc(OCC5(CN6CC(C)(OC)C6)CC5)nc4c3F)c12` [Compound 33], the IC50 amounted to 31.6 nM in test [1]; 126 nM in test [2]; 15.3 nM in test [3]; 151 nM in test [4]; 12.8 nM in test [5].

For the compound `C#Cc1cccc2cc(O)cc(-c3c(F)cc4c(N5CC6CCC(C5)N6)nc(OCC5(CN6CCC7(CC6)CC7)CC5)nc4c3F)c12` [Compound 28], the half-maximal inhibitory concentration (IC50) in test [1] stood at 1.76 nM; in test [2], 52.5 nM; in test [3], 8.37 nM; in test [4] it was 98.6 nM; in test [5], 26.2 nM.

As for `C#Cc1cccc2cc(O)cc(-c3c(F)cc4c(N5CC6CCC(C5)N6)nc(OCC5(CN6CC(C)(OC)C6)CC5)nc4c3F)c12` [Compound 27], the half-inhibitory concentration (IC50) in test [1] stood at 9.61 nM; in test [2] it was 190 nM; in test [3] it was 29.3 nM; in test [4] it was 533 nM; in test [5], 19.3 nM.

For `C#Cc1cccc2cc(O)cc(-c3c(F)cc4c(N5CC6CCC(C5)N6)nc(OCC5(CN6CC7(CCO7)C6)CC5)nc4c3F)c12` [Compound 56], the IC50 in test [1] is 2.05 nM; in test [2] it was 53.2 nM; in test [3], 14.9 nM; in test [4], 182 nM; in test [5], 7.66 nM.

Take `C#Cc1cccc2cc(O)cc(-c3c(F)cc4c(N5CC6CCC(C5)N6)nc(OCC5(CN6CCC7(CCCO7)C6)CC5)nc4c3F)c12` (stereo not drawn) [Compound 47]: the IC50 in test [1] worked out at 2.58 nM; in test [2] it was 92.1 nM; in test [3] it was 29 nM; in test [4], 227 nM; in test [5], 31.4 nM.

`C#Cc1cccc2cc(O)cc(-c3c(F)cc4c(N5CC6CCC(C5)N6)nc(OCC5(CN6CC7(CCC7)C6)CC5)nc4c3F)c12` [Compound 20]: the 50% inhibitory concentration (IC50) amounted to 1.33 nM in test [1]; 58.1 nM in test [2]; 23.3 nM in test [3]; 264 nM in test [4]; 39.2 nM in test [5].

With `C#Cc1cccc2cc(O)cc(-c3c(F)cc4c(N5CC6CCC(C5)N6)nc(OCC5(CN6CCC7(CCOC7)C6)CC5)nc4c3F)c12` (stereo not drawn) [Compound 45], the IC50 in test [1] was 26.4 nM; in test [2], 408 nM; in test [3], 74.2 nM; in test [4], 653 nM; in test [5], 125 nM.

Take `C#Cc1cccc2cc(O)cc(-c3c(F)cc4c(N5CC6CCC(C5)N6)nc(OCC5(CN6CC7(CCCCO7)C6)CC5)nc4c3F)c12` [Compound 48]: the IC50 in test [1] turned out to be 1.49 nM; in test [2], 118 nM; in test [3] it was 36.4 nM; in test [4] it was 315 nM; in test [5] it was 38.6 nM.
